From patent US12391721B2, “Crystal forms of beta-nicotinamide mononucleotide” (Metro International Biotech, LLC, priority 2015, dated 2025)

Assays:
Format in all cases: physicochemical
[1] = Three month stability and forced degradation study: HPLC purity of stored solids; settings: for Known Impurity* (%) (nicotinamide, RRT = 1.73 min) / Purity (%): HPLC
Procedure: Purity analysis was performed on an Agilent HP1100 series system equipped with a diode array detector and using ChemStation software vB.04.03 using the method detailed below in Table 1.
(§1) […] The samples were prepared in duplicate with an offset of 2 weeks. Each replicate was stored in a different container.
(§2) Replicate 1 was charged in an open HPLC vial that was placed in a sealed scintillation vial containing a saturated solution of the relevant inorganic salt (Table 2). These samples were analysed by HPLC, 1H NMR, XRPD and Polarized Light Microscopy (PLM) at 4, 8, and 12 week time points.
(§3) Replicate 2 was stored in sealed box with a recipient containing a saturated solution of the relevant inorganic salt (Table 2). These samples were analysed by HPLC at 2, 6, 10 and 12 week time points. Samples at 25° C./0% RH were stored in a sealed box containing a desiccant agent (P2O5).

[2] = Three month stability and forced degradation study: particle morphology by polarised light microscopy (PLM); settings: Replicate 1
Procedure: Samples were studied on a Leica LM/DM polarised light microscope with a digital video camera for image capture. A small amount of each sample was placed on a glass slide, 15 mounted in immersion oil and covered with a glass slip, the individual particles being separated as well as possible. The sample was viewed with appropriate magnification and partially polarised light, coupled to a λ false-color filter.
as §1, §2

[3] = Dynamic vapor sorption (DVS) of amorphous NMN; settings: FIG. 7
Text: When a sample of amorphous NMN is exposed to atmospheric humidity, the sample goes through phases. […] The amorphous sample is hygroscopic until it deliquesces and starts crystallizing.

[4] = Three month stability and forced degradation study: solid form by XRPD after storage; settings: for XRPD: Replicate 1
Procedure: X-Ray Powder Diffraction patterns were collected on a Bruker D8 diffractometer using Cu Kα radiation (40 kV, 40 mA), θ-2θ goniometer, and divergence of V4 and receiving slits, a Ge monochromator and a Lynxeye detector. The instrument is performance checked using a certified Corundum standard (NIST 1976). The software used for data collection was Diffrac Plus XRD Commander v2.6.1 and the data were analysed and presented using Diffrac Plus EVA v15.0.0.0.
Samples were run under ambient conditions as flat plate specimens using powder as received. The sample was gently packed into a cavity cut into polished, zero-background (510) silicon wafer. The sample was rotated in its own plane during analysis. The details of the data collection are: • Angular range: 2 to 42° 2θ • Step size: 0.05° 2θ • Collection time: 0.5 s/step HPLC
as §1, §2

[5] = Three month stability and forced degradation study: visual observations of stored solids
Procedure: as §1, §2, §3

[6] = solid stored 25° C., 0% RH, 4 weeks, Replicate 1
[7] = solid stored 25° C., 0% RH, 8 weeks, Replicate 1
[8] = solid stored 25° C., 0% RH, 12 weeks, Replicate 1
[9] = solid stored 25° C., 0% RH, 12 weeks, Replicate 1, listed as Amorphous material
[10] = solid stored 25° C., 60% RH, 2 weeks, Replicate 2
[11] = solid stored 25° C., 60% RH, 4 weeks, Replicate 1
[12] = solid stored 25° C., 60% RH, 6 weeks, Replicate 2
[13] = solid stored 25° C., 60% RH, 8 weeks, Replicate 1
[14] = solid stored 25° C., 60% RH, 10 weeks, Replicate 2
[15] = solid stored 25° C., 60% RH, 12 weeks, Replicate 1
[16] = solid stored 25° C., 60% RH, 12 weeks, Replicate 2
[17] = solid stored 25° C., 97% RH, 2 weeks, Replicate 2
[18] = solid stored 25° C., 97% RH, 4 weeks, Replicate 1
[19] = solid stored 25° C., 97% RH, 6 weeks, Replicate 2
[20] = solid stored 25° C., 97% RH, 10 weeks, Replicate 2
[21] = solid stored 25° C., 97% RH, 12 weeks, Replicate 2
[22] = solid stored 40° C., 75% RH, 2 weeks, Replicate 2
[23] = solid stored 40° C., 75% RH, 4 weeks, Replicate 1
[24] = solid stored 40° C., 75% RH, 6 weeks, Replicate 2
[25] = solid stored 40° C., 75% RH, 8 weeks, Replicate 1
[26] = solid stored 40° C., 75% RH, 10 weeks, Replicate 2
[27] = solid stored 40° C., 75% RH, 12 weeks, Replicate 2
[28] = solid stored 40° C., 75% RH, 12 weeks, Replicate 2, listed as amorphous material
[29] = t = 0, baseline of the stability study, listed as J07086
[30] = solid stored 25° C., 0% RH, 4 weeks
[31] = solid stored 25° C., 0% RH, 8 weeks
[32] = solid stored 25° C., 0% RH, 12 weeks
[33] = solid stored 25° C., 60% RH, 4 weeks
[34] = solid stored 25° C., 60% RH, 12 weeks
[35] = solid stored 25° C., 97% RH, 4 weeks
[36] = solid stored 40° C., 75% RH, 4 weeks

Known Impurity* (%) (nicotinamide, RRT = 1.73 min) [1, 6]: 1.81%
Purity (%) [1, 6]: 96.9%
Known Impurity* (%) (nicotinamide, RRT = 1.73 min) [1, 7]: 2.44%
Purity (%) [1, 7]: 95.8%
Known Impurity* (%) (nicotinamide, RRT = 1.73 min) [1, 8]: 2.81%
Purity (%) [1, 8]: 95.0%
Known Impurity* (%) (nicotinamide, RRT = 1.73 min) [1, 9]: 2.8%
Purity (%) [1, 9]: 95.5%
Known Impurity* (%) (nicotinamide, RRT = 1.73 min) [1, 10]: 2.14%
Purity (%) [1, 10]: 97.4%
Known Impurity* (%) (nicotinamide, RRT = 1.73 min) [1, 11]: 2.13%
Purity (%) [1, 11]: 96.9%
Known Impurity* (%) (nicotinamide, RRT = 1.73 min) [1, 12]: 2.06%
Purity (%) [1, 12]: 97.4%
Known Impurity* (%) (nicotinamide, RRT = 1.73 min) [1, 13]: 3.46%
Purity (%) [1, 13]: 95.2%
Known Impurity* (%) (nicotinamide, RRT = 1.73 min) [1, 14]: 2.92%
Purity (%) [1, 14]: 96.0%
Known Impurity* (%) (nicotinamide, RRT = 1.73 min) [1, 15]: 3.46%
Purity (%) [1, 15]: 95.7%
Known Impurity* (%) (nicotinamide, RRT = 1.73 min) [1, 16]: 2.32%
Purity (%) [1, 16]: 96.2%
Known Impurity* (%) (nicotinamide, RRT = 1.73 min) [1, 17]: 1.79%
Purity (%) [1, 17]: 97.8%
Known Impurity* (%) (nicotinamide, RRT = 1.73 min) [1, 18]: 2.44%
Purity (%) [1, 18]: 97.1%
Known Impurity* (%) (nicotinamide, RRT = 1.73 min) [1, 19]: 3.01%
Purity (%) [1, 19]: 96.5%
Known Impurity* (%) (nicotinamide, RRT = 1.73 min) [1, 20]: 4.39%
Purity (%) [1, 20]: 94.9%
Known Impurity* (%) (nicotinamide, RRT = 1.73 min) [1, 21]: 7.02%
Purity (%) [1, 21]: 91.5%
Known Impurity* (%) (nicotinamide, RRT = 1.73 min) [1, 22]: 4.61%
Purity (%) [1, 22]: 94.6%
Known Impurity* (%) (nicotinamide, RRT = 1.73 min) [1, 23]: 6.70%
Purity (%) [1, 23]: 91.3%
Known Impurity* (%) (nicotinamide, RRT = 1.73 min) [1, 24]: 8.22%
Purity (%) [1, 24]: 88.0%
Known Impurity* (%) (nicotinamide, RRT = 1.73 min) [1, 25]: 14.23%
Purity (%) [1, 25]: 76.9%
Known Impurity* (%) (nicotinamide, RRT = 1.73 min) [1, 26]: 16.18%
Purity (%) [1, 26]: 75.9%
Known Impurity* (%) (nicotinamide, RRT = 1.73 min) [1, 27]: 20.60%
Purity (%) [1, 27]: ~67.5^$ %
Known Impurity* (%) (nicotinamide, RRT = 1.73 min) [1, 28]: 20.6%
Purity (%) [1, 28]: 67.5%
HPLC purity profile, Area % of main peak (RRT 1.00) [1, 29]: 98.56 Area %
HPLC purity profile, Area % of peak at RRT 1.76 / 1.74 (nicotinamide) [1, 29]: 0.87 Area %
Purity ([1]; time 0, listed as Amorphous material): 98.2%
PLM [2, 30]: Unchanged
PLM [2, 31]: Unchanged
PLM [2, 32]: Unchanged
PLM [2, 33]: acicular
PLM [2, 34]: acicular
PLM [2, 35]: acicular
PLM [2, 36]: acicular
reversible mass pick up (DVS) ([3]; once crystallised, double cycle): up to 9 % w/w
behaviour on exposure to atmospheric humidity (DVS change in mass plot) ([3]; until it deliquesces and starts crystallizing): hygroscopic
solid form and particle morphology after storage ([4]; 12 weeks at 25° C., 0% RH): remained unchanged
XRPD [4, 30]: Unchanged
XRPD [4, 31]: Unchanged
XRPD [4, 32]: Unchanged
XRPD [4, 33]: Form 1
XRPD ([4]; solid stored 25° C., 60% RH, 8 weeks): Form 1
XRPD [4, 34]: Form 1
XRPD [4, 35]: Form 1
XRPD [4, 36]: Form 1
XRPD ([4]; solid stored 40° C., 75% RH, 8 weeks): Form 1
XRPD ([4]; solid stored 40° C., 75% RH, 12 weeks): Form 1
solid form on storage under humidity ([4]; stored under 25% or greater relative humidity, gives Form 1 with acicular morphology): crystallized
Observations [5, 6]: white solid
Observations [5, 7]: white solid
Observations [5, 8]: white solid
Observations [5, 10]: light yellow solid,
Observations [5, 11]: brown solid
Observations [5, 12]: light brown,
Observations [5, 13]: brown solid,
Observations [5, 14]: light brown,
Observations [5, 15]: brown solid,
Observations [5, 16]: light brown,
Observations [5, 17]: white compacted
Observations [5, 18]: white solid,
Observations [5, 19]: white solid,
Observations ([5]; solid stored 25° C., 97% RH, 8 weeks, Replicate 1): partially
Observations [5, 20]: white solid,
Observations ([5]; solid stored 25° C., 97% RH, 12 weeks, Replicate 1): deliquesced.
Observations [5, 21]: white solid,
Observations [5, 22]: brown compacted
Observations [5, 23]: brown
Observations [5, 24]: dark brown solid
Observations [5, 25]: brown
Observations [5, 26]: black solid
Observations ([5]; solid stored 40° C., 75% RH, 12 weeks, Replicate 1): black solid,
Observations [5, 27]: black solid,
SMILES: NC(=O)c1ccc[n+]([C@@H]2O[C@H](COP(=O)([O-])O)[C@@H](O)[C@H]2O)c1 [Form J07087, β-nicotinamide mononucleotide, reference compound]
